Six molecules from PubChem BioAssay AID1259407 (Chemical Carcinogenesis Research Information System (CCRIS), 2018) can be followed below.

This data set concerns CCRIS mutagenicity, Ames/micronucleus/aberration tests. Put plainly: CCRIS mutagenicity studies.
[1] abbreviates: Test System: AMES SALMONELLA TYPHIMURIUM, Strain/Indicator: TA98, Metabolic Activation: NONE, Method: STANDARD PLATE.
Setting [2] is: Test System: AMES SALMONELLA TYPHIMURIUM, Strain/Indicator: TA98, Metabolic Activation: RAT, LIVER, S-9, AROCLOR 1254, Method: STANDARD PLATE.
The mark [3] stands for this setting: Test System: AMES SALMONELLA TYPHIMURIUM, Strain/Indicator: TA100, Metabolic Activation: NONE, Method: STANDARD PLATE.
Where [4] appears, read: Test System: AMES SALMONELLA TYPHIMURIUM, Strain/Indicator: TA100, Metabolic Activation: RAT, LIVER, S-9, AROCLOR 1254, Method: STANDARD PLATE.
Where [5] appears, read: Test System: AMES SALMONELLA TYPHIMURIUM, Strain/Indicator: TA1535, Metabolic Activation: NONE, Method: STANDARD PLATE.
[6] abbreviates: Test System: AMES SALMONELLA TYPHIMURIUM, Strain/Indicator: TA1535, Metabolic Activation: RAT, LIVER, S-9, AROCLOR 1254, Method: STANDARD PLATE.
[7] abbreviates: Test System: AMES SALMONELLA TYPHIMURIUM, Strain/Indicator: TA1537, Metabolic Activation: NONE, Method: STANDARD PLATE.
[8] abbreviates: Test System: AMES SALMONELLA TYPHIMURIUM, Strain/Indicator: TA1537, Metabolic Activation: RAT, LIVER, S-9, AROCLOR 1254, Method: STANDARD PLATE.

Activity calls are given as the source filed them. No rule for the calls is given here.

With `O=c1c(Cl)c(Cl)cnn1S(=O)(=O)c1ccc([N+](=O)[O-])cc1`, the mutagenic call by setting is: under setting [1], “active; positive”; under setting [2], “inactive; negative”; under setting [3], “active; positive”; under setting [4], “active; positive”; under setting [5], “inactive; negative”; under setting [6], “active; positive”. Besides, the mutagenic call runs as follows: under setting [7], “inactive; negative”; under setting [8], “inactive; negative”.
Turning to `CC(=O)c1ccc[nH]1`, the mutagenic call by setting is: under setting [3], “inactive; negative”; under setting [4], “inactive; negative”.
On to `Cc1cccc2c1cc1ccc3cccc4ccc2c1c34`, for which the mutagenic call was “inactive; negative” (Test System: AMES SALMONELLA TYPHIMURIUM, Strain/Indicator: TA100, Metabolic Activation: RAT, INTACT HEPATOCYTES, AROCLOR 1254, Method: PREINCUBATION) and “active; positive” (Test System: AMES SALMONELLA TYPHIMURIUM, Strain/Indicator: TA100, Metabolic Activation: RAT, NADPH-FORTIFIED HOMOGENIZED HEPATOCYTES, AROCLOR 1254, Method: PREINCUBATION).
Regarding `COc1ccc2oc3cc(O)cc(O)c3c(=O)c2c1`, the mutagenic call is, setting by setting: (Test System: AMES SALMONELLA TYPHIMURIUM, Strain/Indicator: TA97, Metabolic Activation: RAT, LIVER, S-9, PHENOBARBITAL AND 5,6-BENZOFLAVONE, Method: PREINCUBATION) “active; positive”; (Test System: AMES SALMONELLA TYPHIMURIUM, Strain/Indicator: TA98, Metabolic Activation: RAT, LIVER, S-9, PHENOBARBITAL AND 5,6-BENZOFLAVONE, Method: PREINCUBATION) “active; positive”; (Test System: AMES SALMONELLA TYPHIMURIUM, Strain/Indicator: TA100, Metabolic Activation: RAT, LIVER, S-9, PHENOBARBITAL AND 5,6-BENZOFLAVONE, Method: PREINCUBATION) “active; positive”; (Test System: AMES SALMONELLA TYPHIMURIUM, Strain/Indicator: TA2637, Metabolic Activation: RAT, LIVER, S-9, PHENOBARBITAL AND 5,6-BENZOFLAVONE, Method: PREINCUBATION) “active; positive”.
For `CN(C)CCO`, the mutagenic call is “inactive; negative” (Test System: AMES SALMONELLA TYPHIMURIUM, Strain/Indicator: TA97, Metabolic Activation: HAMSTER, LIVER, AROCLOR 1254 (10 OR 30%), Method: PREINCUBATION); “inactive; negative” (Test System: AMES SALMONELLA TYPHIMURIUM, Strain/Indicator: TA97, Metabolic Activation: NONE, Method: PREINCUBATION); “inactive; negative” (Test System: AMES SALMONELLA TYPHIMURIUM, Strain/Indicator: TA97, Metabolic Activation: RAT, LIVER, S-9, AROCLOR 1254 (10 OR 30%), Method: PREINCUBATION); “inactive; negative” (Test System: AMES SALMONELLA TYPHIMURIUM, Strain/Indicator: TA98, Metabolic Activation: HAMSTER, LIVER, S-9, AROCLOR 1254 (10%), Method: PREINCUBATION); “inactive; negative” (Test System: AMES SALMONELLA TYPHIMURIUM, Strain/Indicator: TA98, Metabolic Activation: HAMSTER, LIVER, S-9, AROCLOR 1254 (30%), Method: PREINCUBATION); “inactive; negative” (Test System: AMES SALMONELLA TYPHIMURIUM, Strain/Indicator: TA98, Metabolic Activation: NONE, Method: PREINCUBATION). Further, the mutagenic call was “inactive; negative” under setting [1]; “inactive; negative” (Test System: AMES SALMONELLA TYPHIMURIUM, Strain/Indicator: TA98, Metabolic Activation: RAT, LIVER, S-9, AROCLOR 1254 (10%), Method: PREINCUBATION); “inactive; negative” (Test System: AMES SALMONELLA TYPHIMURIUM, Strain/Indicator: TA98, Metabolic Activation: RAT, LIVER, S-9, AROCLOR 1254 (30%), Method: PREINCUBATION); “inactive; negative” under setting [2]; “inactive; negative” (Test System: AMES SALMONELLA TYPHIMURIUM, Strain/Indicator: TA100, Metabolic Activation: HAMSTER, LIVER, S-9, AROCLOR 1254 (10%), Method: PREINCUBATION); “inactive; negative” (Test System: AMES SALMONELLA TYPHIMURIUM, Strain/Indicator: TA100, Metabolic Activation: HAMSTER, LIVER, S-9, AROCLOR 1254 (30%), Method: PREINCUBATION). Further, the mutagenic call reads like this: (Test System: AMES SALMONELLA TYPHIMURIUM, Strain/Indicator: TA100, Metabolic Activation: NONE, Method: PREINCUBATION) “inactive; negative”; under setting [3], “inactive; negative”; (Test System: AMES SALMONELLA TYPHIMURIUM, Strain/Indicator: TA100, Metabolic Activation: RAT, LIVER, S-9, AROCLOR 1254 (10%), Method: PREINCUBATION) “inactive; negative”; (Test System: AMES SALMONELLA TYPHIMURIUM, Strain/Indicator: TA100, Metabolic Activation: RAT, LIVER, S-9, AROCLOR 1254 (30%), Method: PREINCUBATION) “inactive; negative”; under setting [4], “inactive; negative”; (Test System: AMES SALMONELLA TYPHIMURIUM, Strain/Indicator: TA1535, Metabolic Activation: HAMSTER, LIVER, S-9, AROCLOR 1254 (10%), Method: PREINCUBATION) “inactive; negative”. In addition, the mutagenic call runs as follows: (Test System: AMES SALMONELLA TYPHIMURIUM, Strain/Indicator: TA1535, Metabolic Activation: HAMSTER, LIVER, S-9, AROCLOR 1254 (30%), Method: PREINCUBATION) “inactive; negative”; (Test System: AMES SALMONELLA TYPHIMURIUM, Strain/Indicator: TA1535, Metabolic Activation: NONE, Method: PREINCUBATION) “inactive; negative”; under setting [5], “inactive; negative”; (Test System: AMES SALMONELLA TYPHIMURIUM, Strain/Indicator: TA1535, Metabolic Activation: RAT, LIVER, S-9, AROCLOR 1254 (10%), Method: PREINCUBATION) “inactive; negative”; (Test System: AMES SALMONELLA TYPHIMURIUM, Strain/Indicator: TA1535, Metabolic Activation: RAT, LIVER, S-9, AROCLOR 1254 (30%), Method: PREINCUBATION) “inactive; negative”; under setting [6], “inactive; negative”. For the same molecule, the mutagenic call was “inactive; negative” (Test System: AMES SALMONELLA TYPHIMURIUM, Strain/Indicator: TA1537, Metabolic Activation: HAMSTER, LIVER, S-9, AROCLOR 1254 (10%), Method: PREINCUBATION); “inactive; negative” (Test System: AMES SALMONELLA TYPHIMURIUM, Strain/Indicator: TA1537, Metabolic Activation: HAMSTER, LIVER, S-9, AROCLOR 1254 (30%), Method: PREINCUBATION); “inactive; negative” (Test System: AMES SALMONELLA TYPHIMURIUM, Strain/Indicator: TA1537, Metabolic Activation: NONE, Method: PREINCUBATION); “inactive; negative” under setting [7]; “inactive; negative” (Test System: AMES SALMONELLA TYPHIMURIUM, Strain/Indicator: TA1537, Metabolic Activation: RAT, LIVER, S-9, AROCLOR 1254 (10%), Method: PREINCUBATION); “inactive; negative” (Test System: AMES SALMONELLA TYPHIMURIUM, Strain/Indicator: TA1537, Metabolic Activation: RAT, LIVER, S-9, AROCLOR 1254 (30%), Method: PREINCUBATION). The mutagenic call is, setting by setting: under setting [8], “inactive; negative”; (Test System: AMES SALMONELLA TYPHIMURIUM, Strain/Indicator: TA1538, Metabolic Activation: NONE, Method: STANDARD PLATE) “inactive; negative”; (Test System: AMES SALMONELLA TYPHIMURIUM, Strain/Indicator: TA1538, Metabolic Activation: RAT, LIVER, S-9, AROCLOR 1254, Method: STANDARD PLATE) “inactive; negative”; (Test System: CHINESE HAMSTER OVARY, Strain/Indicator: CHO-K1-BH4, Metabolic Activation: NONE) “inactive; negative”; (Test System: CHINESE HAMSTER OVARY, Strain/Indicator: CHO-K1-BH4, Metabolic Activation: RAT, LIVER, S-9, AROCLOR 1254) “inactive; negative”.
`C=C(C)C(=O)OCCOC1C=CC2C3CCC(C3)C12` (stereo not drawn): the mutagenic call reads like this: (Test System: CHINESE HAMSTER OVARY, Strain/Indicator: CHO-K1-BH4 (HGPRT), Metabolic Activation: NONE, Method: MONOLAYER) “inactive; negative”; (Test System: CHINESE HAMSTER OVARY, Strain/Indicator: CHO-K1-BH4 (HGPRT), Metabolic Activation: NONE, Method: SUSPENSION/PLATE) “active; positive”.
